Laboratory results published in US20130123368A1, “METHODS OF REDUCING 15-F2T-ISOP LEVELS IN MAMMALS” (BIOACTIVES, INC., priority 2007, published 2013).

Tests used:
Caco-2 cell monolayers [1] = assay: Certification of Caco-2 Transwell plates with reference compounds; format: in vitro ADME; conditions: plate certification TW12, passage 63, age 22 days
Method: To test the permeability of xanthohumol across Caco-2 cell monolayers, Caco-2 cell monolayers were grown to confluence on collagen-coated, microporous, polycarbonate membranes in 12-well Costar Transwell® plates. Details of the plates and their certification are shown below in Table 3. The test article was also the aqueous xanthohumol formulation, and the dosing concentration was 2 μM in the assay buffer (HBSSg) as in the previous example. Cell monolayers were dosed on the apical side (A-to-B) or basolateral side (B-to-A) and incubated at 37° C. with 5% CO2 in a humidified incubator. Samples were taken from the donor chamber at 120 minutes, and samples from the receiver chamber were collected at 60 and 120 minutes. Each determination was performed in duplicate. Lucifer yellow permeability was also measured for each monolayer after being subjected to the test article to ensure no damage was inflicted to the cell monolayers during the permeability experiment. All samples were assayed for Xanthohumol by LC/MS/MS using electrospray ionization. The apparent permeability (Papp), and percent recovery were calculated as described above.

Caco-2 cell monolayers [2] = assay: Permeability of xanthohumol across Caco-2 cell monolayers; format: in vitro ADME; conditions: for Percent Recovery: Caco-2, B-to-A, 2 μM in HBSSg, 37° C.
Method: Percent Recovery=100×((Vr×Cr^final)+(Vd×Cd^final))/(Vd×C0)
Where: • dCr/dt is the slope of the cumulative concentration in the receiver compartment versus time in μM s^−1. • Vr is the volume of the receiver compartment in cm^3. • Vd is the volume of the donor compartment in cm^3. • A is the area of the cell-free insert (1.13 cm^2 for 12-well Transwell). • Cr^final is the cumulative receiver concentration in μM at the end of the incubation period. • Cd^final is the concentration of the donor in μM at the end of the incubation period. • C0 is the initial concentration of the dosing solution in μM.
Each determination was performed in duplicate.

| Compound | Papp (Caco-2 cell monolayers [1]) [×10⁻⁶ cm/s] | Lucifer yellow Papp, post-experiment integrity control (Caco-2 cell monolayers [2]; all monolayers after exposure to the test article) [×10⁻⁶ cm/s] | Significant Efflux (Caco-2 cell monolayers [2]; Caco-2) | Percent Recovery (Caco-2 cell monolayers [2]; Average) | Percent Recovery (Caco-2 cell monolayers [2]; Rep. 1) | Absorption Potential (Caco-2 cell monolayers [2]; Caco-2, classification by Papp(A-to-B)) |
| --- | --- | --- | --- | --- | --- | --- |
| Lucifer Yellow [reference compound] | 0.13 | < 0.8 | – | – | – | – |
| COc1cc(O)c(CC=C(C)C)c(O)c1C(=O)/C=C/c1ccc(O)cc1 [Xanthohumol, 2′,4′,4-trihydroxy-6′-methoxy-3′-prenylchalcone] | – | – | No | 81 | 81 | Medium (1.0 × 10^−6 cm/s > Papp(A-to-B) ≧ 0.5 × 10^−6 cm/s Medium) |
